From PubChem BioAssay (NCI)
Values joined by “and” are separate entries in the source; they are usually repeats but may differ in a detail not shown here. Equal values may be shown once.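 In this assay, cells in 96-well plates receive the compound at five concentrations for 48 hours. Endpoints are linearly interpolated between the surrounding concentrations. GI50: concentration for 50% inhibition of growth. The concentration for full growth arrest is given as TGI.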

Test system: ACHN renal
Assay: NCI tumour cell line growth inhibition, 48 h

SMILES	GI50	TGI
CN1CCN(c2ccc(Nc3ncc4cc(C#N)c(=O)n(C5CCCC5)c4n3)cc2)CC1	0.309 µM	13.5 µM
Nc1ccc2[nH]cc(CCC(=O)O)c2c1		> 100 µM
OCC(O)CNc1ccnc2cc(Cl)ccc12 (stereo unspecified)		> 100 µM
Cc1cccc(C(C)C)c1NC(=O)C(=O)C(C(=O)c1ccccc1F)C1OC(=O)c2ccccc21 (stereo unspecified)		> 100 µM
Cc1cccc(C)c1NC(=O)C(=O)CC(=O)c1cccc([N+](=O)[O-])c1		> 100 µM
Cc1ccc(S(=O)(=O)NC(=O)NC2=NC(C)(C)N(c3ccc(Cl)c(Cl)c3)C(N)=N2)cc1		> 100 µM
CC1=C(c2cc(C(=O)Nc3ccc(Cl)cc3)nc(=S)[nH]2)Sc2ccccc2N1		> 100 µM
O=C(O)CN(c1ccccc1)S(=O)(=O)c1ccc([N+](=O)[O-])cc1		> 100 µM
CC1=C(C(=O)NNS(=O)(=O)c2ccc(C)cc2)CC(C(=O)NNS(=O)(=O)c2ccc(C)cc2)=C(C)N1		> 100 µM
[F][Sn]([F])([c]1ccccc1)[c]1ccccc1	1.6 µM	2.97 µM
N#CC(C(=O)CCC(=O)Nc1cccc(C(F)(F)F)c1)c1ccc(Cl)cc1 (stereo unspecified)		> 100 µM
COC(=O)/C(=C\c1ccc(N(CCC#N)CCC#N)cc1)NC(=O)c1cc([N+](=O)[O-])ccc1Cl		> 100 µM
COC1=C(Br)C(=O)c2nc(C)ccc2C1=O		24 µM
C/C(CCn1[nH]c(=O)ccc1=O)=N\OCCCc1ccccc1		> 100 µM
COC(=O)c1cccc2cccc(C(=O)Nc3ccc(Cl)cc3)c12		> 100 µM
Nc1nc(N)c2cc(CNc3ccc(C(=O)NC(CC(=O)O)C(=O)O)c(Cl)c3)ccc2n1 (stereo unspecified)	0.05 µM	> 500 µM
N.N.NCCCCCCCCCN.O=C([O-])CC(=O)[O-].O=C([O-])CC(=O)[O-].[Pt+4].[Pt+4]	90.3 µM	> 100 µM
CC(=O)OC1C2CCC1C1C2C2(Cl)C(Cl)=C(Cl)C1(Cl)C2(Cl)Cl (stereo unspecified)		25.9 µM
CC(C(=O)n1c2ccccc2c2ccccc21)N(c1ccccc1)c1ccccc1 (stereo unspecified)		30.7 µM
CCOC(=O)Cn1c(=O)n(C)c(=O)c2c1ncn2Cc1ccccc1		> 100 µM

SMILES	GI50	TGI
CCCCc1c2c(nc3c1CCC/C3=C\c1ccccc1)/C(=C/c1ccccc1)CCC2		> 100 µM
CC(C)(C)OC(=O)N1N=NC2C1C1CC(OCc3ccccc3)(OCc3ccccc3)C2O1 (stereo unspecified)		> 100 µM
CC(O)CC(O)(C(F)(F)F)C(F)(F)F (stereo unspecified)		> 10 µM
O=C1CSC(c2ccc(-c3nc4ccccc4s3)cc2)=N1	55.6 µM	> 100 µM
CC1=CC(=O)C(C(O)(C(F)(F)F)C(F)(F)F)C(C)(C)C1 (stereo unspecified)		> 10 µM
O=C1C(=O)N(c2cc(Cl)ccc2Cl)C(=O)C(=O)C1c1nc2ccccc2o1		> 100 µM
O=C(O)C12CC3(C(=O)O)CC(C(=O)O)(CC(C(=O)O)(C1)C3=O)C2=O		> 100 µM
O=c1c2ccccc2nc(-c2ccccc2)n1NC(=S)Nc1ccccc1		> 100 µM
CCOC(=O)/C(=C/c1cccc(C#N)c1)N(CC)CC		> 100 µM
C=CCN1CC2CON(C(=O)C(OC)(c3ccccc3)C(F)(F)F)C2C1C(C)C (stereo unspecified)	38.1 µg/mL	
COc1cc(C2C(C(=O)Nc3cc(F)c(F)cc3F)=C(C)NC(C)=C2C(=O)Nc2cc(F)c(F)cc2F)ccc1O		65.3 µM
Nc1ccc2nc3n(c2c1)C(=O)c1ccccc1-3		> 100 µM
O=c1nc(-c2ccccc2)cc(-c2ccccc2O)[nH]1		> 100 µM
Oc1ccc(Br)cc1C=Nc1ccc(N=Cc2cc(Br)ccc2O)cc1		> 100 µM
CCOc1ccccc1NC(=O)C(=O)Cc1nc2ccccc2s1		> 100 µM
C=CCn1c2c(sc1=S)C(S)N=CN2 (stereo unspecified)		> 100 µM
Cc1cccc(N=C2NC(=O)C(CC(=O)Nc3cccc(C)c3C)S2)c1 (stereo unspecified)		> 100 µM
O=C(O)CSc1n[nH]c(Cc2ccccc2)n1		> 100 µM
O=C1C(Cl)=C(Nc2ccccc2O)C(=O)N1Cc1ccccc1	20.6 µM	55.8 µM
CCOc1ccccc1NC(=O)C(C#N)C1=C(Cl)C(=O)c2ccccc2C1=O (stereo unspecified)		3.26 µM and 3.52 µM

Test system: SK-MEL-5 melanoma
Assay: NCI tumour cell line growth inhibition, 48 h

SMILES	GI50 [µM]	TGI
CN1CCN(c2ccc(Nc3ncc4cc(C#N)c(=O)n(C5CCCC5)c4n3)cc2)CC1	3.17	> 100 µM
Nc1ccc2[nH]cc(CCC(=O)O)c2c1		> 100 µM
OCC(O)CNc1ccnc2cc(Cl)ccc12 (stereo unspecified)		> 100 µM
Cc1cccc(C(C)C)c1NC(=O)C(=O)C(C(=O)c1ccccc1F)C1OC(=O)c2ccccc21 (stereo unspecified)		28.5 µM
Cc1cccc(C)c1NC(=O)C(=O)CC(=O)c1cccc([N+](=O)[O-])c1		> 100 µM
Cc1ccc(S(=O)(=O)NC(=O)NC2=NC(C)(C)N(c3ccc(Cl)c(Cl)c3)C(N)=N2)cc1		> 100 µM
CC1=C(c2cc(C(=O)Nc3ccc(Cl)cc3)nc(=S)[nH]2)Sc2ccccc2N1		> 100 µM
O=C(O)CN(c1ccccc1)S(=O)(=O)c1ccc([N+](=O)[O-])cc1		> 100 µM
Clc1cc(Cl)cc(Nc2ccc3cc(OCCCN4CCOCC4)ccc3n2)c1	1.71	3.13 µM
[F][Sn]([F])([c]1ccccc1)[c]1ccccc1	1.78	3.31 µM
N#CC(C(=O)CCC(=O)Nc1cccc(C(F)(F)F)c1)c1ccc(Cl)cc1 (stereo unspecified)		> 100 µM
Cc1cc(C(C)(C)C)cc(Cc2cc(C(C)(C)C)cc(Cc3cc(C(C)(C)C)cc(C)c3O)c2O)c1O		21.6 µM
COC(=O)/C(=C\c1ccc(N(CCC#N)CCC#N)cc1)NC(=O)c1cc([N+](=O)[O-])ccc1Cl		> 100 µM
COC1=C(Br)C(=O)c2nc(C)ccc2C1=O		32 µM
C/C(CCn1[nH]c(=O)ccc1=O)=N\OCCCc1ccccc1		> 100 µM
COC(=O)c1cccc2cccc(C(=O)Nc3ccc(Cl)cc3)c12		> 100 µM
Nc1nc(N)c2cc(CNc3ccc(C(=O)NC(CC(=O)O)C(=O)O)c(Cl)c3)ccc2n1 (stereo unspecified)	0.05	> 500 µM
N.N.NCCCCCCCCCN.O=C([O-])CC(=O)[O-].O=C([O-])CC(=O)[O-].[Pt+4].[Pt+4]	28.9	81.7 µM
CC(=O)OC1C2CCC1C1C2C2(Cl)C(Cl)=C(Cl)C1(Cl)C2(Cl)Cl (stereo unspecified)		26 µM
CC(C(=O)n1c2ccccc2c2ccccc21)N(c1ccccc1)c1ccccc1 (stereo unspecified)		35.1 µM
CCOC(=O)Cn1c(=O)n(C)c(=O)c2c1ncn2Cc1ccccc1		> 100 µM

SMILES	GI50 [µM]	TGI
CCCCc1c2c(nc3c1CCC/C3=C\c1ccccc1)/C(=C/c1ccccc1)CCC2		> 100 µM
CC(C)(C)OC(=O)N1N=NC2C1C1CC(OCc3ccccc3)(OCc3ccccc3)C2O1 (stereo unspecified)		32.6 µM
CC(O)CC(O)(C(F)(F)F)C(F)(F)F (stereo unspecified)		> 10 µM
O=C1CSC(c2ccc(-c3nc4ccccc4s3)cc2)=N1	19.2	41.2 µM
CC1=CC(=O)C(C(O)(C(F)(F)F)C(F)(F)F)C(C)(C)C1 (stereo unspecified)		> 10 µM
O=C1C(=O)N(c2cc(Cl)ccc2Cl)C(=O)C(=O)C1c1nc2ccccc2o1		> 100 µM
O=C(O)C12CC3(C(=O)O)CC(C(=O)O)(CC(C(=O)O)(C1)C3=O)C2=O		> 100 µM
O=c1c2ccccc2nc(-c2ccccc2)n1NC(=S)Nc1ccccc1		> 100 µM
CCOC(=O)/C(=C/c1cccc(C#N)c1)N(CC)CC		> 100 µM
O=S1(=O)OCCOS(=O)(=O)C1Cl		> 100 µM
COc1cc(C2C(C(=O)Nc3cc(F)c(F)cc3F)=C(C)NC(C)=C2C(=O)Nc2cc(F)c(F)cc2F)ccc1O		53.9 µM
Nc1ccc2nc3n(c2c1)C(=O)c1ccccc1-3		> 100 µM
Oc1ccc(Br)cc1C=Nc1ccc(N=Cc2cc(Br)ccc2O)cc1		> 100 µM
CCOc1ccccc1NC(=O)C(=O)Cc1nc2ccccc2s1		> 100 µM
C=CCn1c2c(sc1=S)C(S)N=CN2 (stereo unspecified)		> 100 µM
Cc1cccc(N=C2NC(=O)C(CC(=O)Nc3cccc(C)c3C)S2)c1 (stereo unspecified)		> 100 µM
CN(C)CCSc1nccc(-c2cc3ccccc3s2)n1		27.9 µM
O=C(O)CSc1n[nH]c(Cc2ccccc2)n1		> 100 µM
O=C1C(Cl)=C(Nc2ccccc2O)C(=O)N1Cc1ccccc1	15.3	28.6 µM
CCOc1ccccc1NC(=O)C(C#N)C1=C(Cl)C(=O)c2ccccc2C1=O (stereo unspecified)		2.86 µM and 3.13 µM

Test system: SF-539 CNS
Assay: NCI tumour cell line growth inhibition, 48 h

SMILES	GI50 [µM]	TGI [µM]
CN1CCN(c2ccc(Nc3ncc4cc(C#N)c(=O)n(C5CCCC5)c4n3)cc2)CC1	1.28	3.27
Nc1ccc2[nH]cc(CCC(=O)O)c2c1		> 100
OCC(O)CNc1ccnc2cc(Cl)ccc12 (stereo unspecified)		> 100
Cc1cccc(C)c1NC(=O)C(=O)CC(=O)c1cccc([N+](=O)[O-])c1		> 100
Cc1ccc(S(=O)(=O)NC(=O)NC2=NC(C)(C)N(c3ccc(Cl)c(Cl)c3)C(N)=N2)cc1		> 100
CC1=C(c2cc(C(=O)Nc3ccc(Cl)cc3)nc(=S)[nH]2)Sc2ccccc2N1		> 100
O=C(O)CN(c1ccccc1)S(=O)(=O)c1ccc([N+](=O)[O-])cc1		> 100
CC1=C(C(=O)NNS(=O)(=O)c2ccc(C)cc2)CC(C(=O)NNS(=O)(=O)c2ccc(C)cc2)=C(C)N1		> 100
[F][Sn]([F])([c]1ccccc1)[c]1ccccc1	2.13	4.09
N#CC(C(=O)CCC(=O)Nc1cccc(C(F)(F)F)c1)c1ccc(Cl)cc1 (stereo unspecified)		> 100
